How the values were obtained:
[1] = biological target: Casein kinase II subunit alpha (Homo sapiens, UniProt P68400); test: Kinase Assay
Description: (§1) Selected compounds were screened against a panel of mammalian kinases. Compounds were supplied in DMSO and screened in duplicates at 100 uM concentration using a radioactive (33P-ATP) filter-binding-assay.

[2] = biological target: MAP kinase-activated protein kinase 3 (Homo sapiens, UniProt Q16644); test: Kinase Assay
Description: as §1

[3] = biological target: Proto-oncogene tyrosine-protein kinase Src (Gallus gallus, UniProt P00523); test: Kinase Assay
Description: as §1

[4] = biological target: Ribosomal protein S6 kinase alpha-3 (Homo sapiens, UniProt P51812); test: Kinase Assay
Description: as §1

SRSF protein kinase 1 = SRSF protein kinase 1 (Homo sapiens, UniProt Q96SB4); test: Kinase Assay
Description: as §1

Aurora kinase A = biological target: T1, Aurora kinase A (Homo sapiens, UniProt O14965); test: Kinase Assay
T1 sequence (O14965 whole entry): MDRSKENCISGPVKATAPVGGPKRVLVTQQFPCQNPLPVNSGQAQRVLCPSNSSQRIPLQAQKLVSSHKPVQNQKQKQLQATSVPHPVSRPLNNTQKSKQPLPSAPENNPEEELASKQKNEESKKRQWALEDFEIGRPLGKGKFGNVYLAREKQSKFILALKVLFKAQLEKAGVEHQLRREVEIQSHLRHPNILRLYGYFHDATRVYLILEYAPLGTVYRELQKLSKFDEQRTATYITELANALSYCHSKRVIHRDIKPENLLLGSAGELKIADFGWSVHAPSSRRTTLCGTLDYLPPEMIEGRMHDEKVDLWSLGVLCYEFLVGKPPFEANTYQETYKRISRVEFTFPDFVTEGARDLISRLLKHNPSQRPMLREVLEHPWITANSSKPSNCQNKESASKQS
Description: as §1

[5] = biological target: Cyclin-dependent kinase 2 (Homo sapiens, UniProt P24941); test: Kinase Assay
Description: as §1

[6] = biological target: Dual specificity protein kinase CLK2 (Homo sapiens, UniProt P49760); test: Kinase Assay
Dual specificity protein kinase CLK2, sequence (P49760 whole entry): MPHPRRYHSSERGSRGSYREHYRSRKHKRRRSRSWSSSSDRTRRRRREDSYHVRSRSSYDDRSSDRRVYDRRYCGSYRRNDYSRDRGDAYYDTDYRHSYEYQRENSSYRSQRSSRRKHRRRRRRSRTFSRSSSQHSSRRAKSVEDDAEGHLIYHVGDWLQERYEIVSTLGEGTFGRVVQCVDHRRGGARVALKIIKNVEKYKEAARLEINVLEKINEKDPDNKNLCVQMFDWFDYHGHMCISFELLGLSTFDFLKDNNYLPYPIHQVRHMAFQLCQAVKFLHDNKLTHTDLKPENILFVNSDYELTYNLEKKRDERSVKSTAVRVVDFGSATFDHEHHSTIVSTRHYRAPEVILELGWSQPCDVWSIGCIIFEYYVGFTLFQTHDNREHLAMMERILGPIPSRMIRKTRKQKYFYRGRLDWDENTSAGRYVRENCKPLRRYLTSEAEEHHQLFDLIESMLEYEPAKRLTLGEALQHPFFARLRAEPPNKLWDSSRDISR
Description: as §1

[7] = biological target: Fibroblast growth factor receptor 1 (Homo sapiens, UniProt P11362); test: Kinase Assay
Fibroblast growth factor receptor 1, sequence (P11362 whole entry): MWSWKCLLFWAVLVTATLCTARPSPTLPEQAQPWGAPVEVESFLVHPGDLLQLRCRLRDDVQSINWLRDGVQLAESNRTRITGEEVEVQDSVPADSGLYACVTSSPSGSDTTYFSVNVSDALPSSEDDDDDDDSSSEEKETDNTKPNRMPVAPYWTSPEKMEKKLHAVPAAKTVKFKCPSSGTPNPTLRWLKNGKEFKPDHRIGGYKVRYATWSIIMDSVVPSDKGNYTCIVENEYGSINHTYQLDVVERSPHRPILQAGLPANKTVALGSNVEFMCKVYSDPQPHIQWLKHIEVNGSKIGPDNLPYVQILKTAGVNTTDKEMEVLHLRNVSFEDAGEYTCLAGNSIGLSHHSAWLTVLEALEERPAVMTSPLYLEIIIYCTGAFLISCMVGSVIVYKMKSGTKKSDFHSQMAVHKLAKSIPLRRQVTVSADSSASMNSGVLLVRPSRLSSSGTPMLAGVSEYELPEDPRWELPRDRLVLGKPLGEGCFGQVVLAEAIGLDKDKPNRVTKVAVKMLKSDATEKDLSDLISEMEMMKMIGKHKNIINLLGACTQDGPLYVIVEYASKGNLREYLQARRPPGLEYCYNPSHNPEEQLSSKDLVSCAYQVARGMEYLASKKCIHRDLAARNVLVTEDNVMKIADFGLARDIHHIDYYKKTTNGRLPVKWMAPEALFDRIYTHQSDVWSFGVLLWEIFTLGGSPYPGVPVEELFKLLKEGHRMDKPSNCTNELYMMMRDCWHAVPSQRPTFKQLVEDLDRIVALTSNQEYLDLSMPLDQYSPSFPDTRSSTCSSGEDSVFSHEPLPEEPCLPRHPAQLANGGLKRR
Description: as §1

[8] = biological target: Insulin-like growth factor 1 receptor (Homo sapiens, UniProt P08069); test: Kinase Assay
Insulin-like growth factor 1 receptor, sequence (P08069 31-736 limits assumed): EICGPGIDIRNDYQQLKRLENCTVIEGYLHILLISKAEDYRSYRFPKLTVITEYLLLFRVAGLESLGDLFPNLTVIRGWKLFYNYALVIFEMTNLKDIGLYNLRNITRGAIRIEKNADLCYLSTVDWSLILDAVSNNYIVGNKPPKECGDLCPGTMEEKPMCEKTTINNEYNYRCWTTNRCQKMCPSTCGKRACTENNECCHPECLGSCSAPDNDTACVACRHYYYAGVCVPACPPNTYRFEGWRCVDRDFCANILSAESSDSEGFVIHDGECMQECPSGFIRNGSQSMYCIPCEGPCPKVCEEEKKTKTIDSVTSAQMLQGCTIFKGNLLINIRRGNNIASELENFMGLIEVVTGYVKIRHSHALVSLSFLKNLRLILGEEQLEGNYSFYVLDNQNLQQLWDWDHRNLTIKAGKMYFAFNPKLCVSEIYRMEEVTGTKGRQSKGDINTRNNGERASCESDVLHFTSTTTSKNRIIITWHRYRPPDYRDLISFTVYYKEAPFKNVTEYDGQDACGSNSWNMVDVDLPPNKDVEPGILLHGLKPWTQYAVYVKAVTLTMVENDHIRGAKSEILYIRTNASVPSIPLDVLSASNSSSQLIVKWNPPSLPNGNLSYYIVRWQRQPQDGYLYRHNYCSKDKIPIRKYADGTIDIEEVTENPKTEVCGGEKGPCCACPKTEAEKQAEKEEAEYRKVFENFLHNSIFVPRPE
Insulin-like growth factor 1 receptor, sequence (P08069 741-1367 limits assumed): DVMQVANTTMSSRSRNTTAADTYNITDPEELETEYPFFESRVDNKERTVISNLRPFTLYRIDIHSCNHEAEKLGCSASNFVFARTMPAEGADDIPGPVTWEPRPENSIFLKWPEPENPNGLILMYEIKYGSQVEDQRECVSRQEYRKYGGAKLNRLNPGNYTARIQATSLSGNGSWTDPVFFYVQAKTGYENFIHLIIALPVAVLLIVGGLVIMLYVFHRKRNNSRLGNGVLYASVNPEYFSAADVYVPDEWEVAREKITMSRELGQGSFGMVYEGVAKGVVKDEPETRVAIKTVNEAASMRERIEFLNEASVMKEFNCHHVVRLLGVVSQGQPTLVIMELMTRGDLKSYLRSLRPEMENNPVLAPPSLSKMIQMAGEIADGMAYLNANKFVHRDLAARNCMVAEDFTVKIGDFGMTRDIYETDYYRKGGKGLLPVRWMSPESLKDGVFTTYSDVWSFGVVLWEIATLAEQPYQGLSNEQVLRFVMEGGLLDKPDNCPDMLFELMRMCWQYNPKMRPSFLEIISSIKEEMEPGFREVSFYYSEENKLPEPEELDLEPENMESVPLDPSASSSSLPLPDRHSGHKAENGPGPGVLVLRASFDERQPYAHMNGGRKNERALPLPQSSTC
Description: as §1

[9] = biological target: T2, Mitogen-activated protein kinase kinase kinase 7 (Homo sapiens, UniProt O43318); test: Kinase Assay
T2 sequence (O43318 whole entry): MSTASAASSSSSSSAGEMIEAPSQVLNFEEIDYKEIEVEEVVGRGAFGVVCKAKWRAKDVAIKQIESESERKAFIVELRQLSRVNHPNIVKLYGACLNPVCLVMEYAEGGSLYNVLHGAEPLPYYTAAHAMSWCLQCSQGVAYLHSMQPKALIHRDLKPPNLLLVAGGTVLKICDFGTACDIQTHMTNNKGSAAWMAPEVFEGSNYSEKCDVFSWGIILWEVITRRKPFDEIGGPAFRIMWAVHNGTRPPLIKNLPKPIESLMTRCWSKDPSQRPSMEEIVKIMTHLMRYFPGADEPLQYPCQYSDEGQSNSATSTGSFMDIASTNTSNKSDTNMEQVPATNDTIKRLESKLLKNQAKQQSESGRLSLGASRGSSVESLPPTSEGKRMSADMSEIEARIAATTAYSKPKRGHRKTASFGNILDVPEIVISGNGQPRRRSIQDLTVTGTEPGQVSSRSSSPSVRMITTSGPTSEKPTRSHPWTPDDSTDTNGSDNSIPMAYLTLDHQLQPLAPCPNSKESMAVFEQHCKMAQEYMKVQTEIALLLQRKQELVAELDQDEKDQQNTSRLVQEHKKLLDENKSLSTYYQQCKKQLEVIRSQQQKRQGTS
Description: as §1

[10] = biological target: Germinal center kinase MAP4K2 (Homo sapiens); test: Selected compounds were screened against a panel of mammalian kinases. Compounds were supplied in DMSO and screened in duplicates at 100 uM concentration using a radioactive (33P-ATP) filter-binding-assay.
[11] = biological target: Serine/threonine-protein kinase Chk2 (Homo sapiens, UniProt O96017); test: Kinase Assay
Description: as §1

[12] = biological target: Tyrosine-protein kinase Yes (Homo sapiens, UniProt P07947); test: Kinase Assay
Description: as §1

[13] = biological target: Vascular endothelial growth factor receptor 2 (Homo sapiens, UniProt P35968); test: Kinase Assay
Vascular endothelial growth factor receptor 2, sequence (P35968 whole entry): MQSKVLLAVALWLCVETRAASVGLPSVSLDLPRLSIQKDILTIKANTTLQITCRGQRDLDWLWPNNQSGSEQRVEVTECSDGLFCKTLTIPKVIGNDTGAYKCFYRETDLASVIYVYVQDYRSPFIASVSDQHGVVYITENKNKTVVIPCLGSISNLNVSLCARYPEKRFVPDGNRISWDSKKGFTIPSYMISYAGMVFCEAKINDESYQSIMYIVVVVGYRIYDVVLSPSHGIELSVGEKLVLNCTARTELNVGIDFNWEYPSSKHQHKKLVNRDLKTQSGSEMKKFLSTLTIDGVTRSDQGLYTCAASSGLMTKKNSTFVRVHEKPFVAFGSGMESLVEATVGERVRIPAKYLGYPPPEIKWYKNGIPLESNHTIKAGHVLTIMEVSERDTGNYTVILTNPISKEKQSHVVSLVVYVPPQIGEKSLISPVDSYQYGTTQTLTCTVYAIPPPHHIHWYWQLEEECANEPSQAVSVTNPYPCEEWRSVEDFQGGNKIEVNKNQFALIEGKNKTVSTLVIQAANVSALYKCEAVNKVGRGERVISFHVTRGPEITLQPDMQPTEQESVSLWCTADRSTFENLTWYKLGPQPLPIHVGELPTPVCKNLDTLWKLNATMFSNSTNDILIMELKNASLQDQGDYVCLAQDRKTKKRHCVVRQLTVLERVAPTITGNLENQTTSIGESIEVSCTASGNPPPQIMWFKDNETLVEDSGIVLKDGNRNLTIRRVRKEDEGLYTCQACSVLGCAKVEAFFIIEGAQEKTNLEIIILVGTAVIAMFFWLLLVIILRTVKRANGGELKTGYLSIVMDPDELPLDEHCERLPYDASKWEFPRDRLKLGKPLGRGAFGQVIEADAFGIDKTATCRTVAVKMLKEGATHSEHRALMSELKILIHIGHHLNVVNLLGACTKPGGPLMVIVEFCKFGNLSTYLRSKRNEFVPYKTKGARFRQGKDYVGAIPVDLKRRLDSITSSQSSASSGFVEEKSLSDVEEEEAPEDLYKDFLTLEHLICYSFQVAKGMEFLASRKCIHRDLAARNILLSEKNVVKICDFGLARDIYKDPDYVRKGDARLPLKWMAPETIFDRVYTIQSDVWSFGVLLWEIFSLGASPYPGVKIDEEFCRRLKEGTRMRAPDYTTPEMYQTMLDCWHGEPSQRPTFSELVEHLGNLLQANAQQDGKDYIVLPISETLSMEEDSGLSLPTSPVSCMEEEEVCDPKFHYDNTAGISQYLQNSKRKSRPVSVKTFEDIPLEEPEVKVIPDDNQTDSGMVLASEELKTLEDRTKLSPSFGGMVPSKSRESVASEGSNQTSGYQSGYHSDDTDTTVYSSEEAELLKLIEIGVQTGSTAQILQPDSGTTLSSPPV
Description: as §1

[14] = biological target: Glycogen synthase kinase-3 beta (Homo sapiens, UniProt P49841); test: Kinase Assay
Description: as §1

[15] = biological target: T3, Serine/threonine-protein kinase Sgk1 (Homo sapiens, UniProt O00141); test: Kinase Assay
T3 sequence (O00141 whole entry): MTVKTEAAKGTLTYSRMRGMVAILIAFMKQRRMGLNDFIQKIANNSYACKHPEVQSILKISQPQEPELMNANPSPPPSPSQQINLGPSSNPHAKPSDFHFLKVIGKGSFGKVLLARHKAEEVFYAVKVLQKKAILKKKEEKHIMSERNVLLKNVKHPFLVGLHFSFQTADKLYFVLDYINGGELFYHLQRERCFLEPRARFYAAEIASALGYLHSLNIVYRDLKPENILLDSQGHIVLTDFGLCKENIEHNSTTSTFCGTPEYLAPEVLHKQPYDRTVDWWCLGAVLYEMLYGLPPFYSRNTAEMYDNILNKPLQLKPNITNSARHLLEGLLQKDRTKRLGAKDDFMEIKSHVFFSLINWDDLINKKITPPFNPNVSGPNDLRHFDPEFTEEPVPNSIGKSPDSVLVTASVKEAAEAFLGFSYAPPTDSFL
Description: as §1

Ephrin type-B receptor 3 = biological target: T4, Ephrin type-B receptor 3 (Homo sapiens, UniProt P54753); test: Kinase Assay
T4 sequence (P54753 whole entry): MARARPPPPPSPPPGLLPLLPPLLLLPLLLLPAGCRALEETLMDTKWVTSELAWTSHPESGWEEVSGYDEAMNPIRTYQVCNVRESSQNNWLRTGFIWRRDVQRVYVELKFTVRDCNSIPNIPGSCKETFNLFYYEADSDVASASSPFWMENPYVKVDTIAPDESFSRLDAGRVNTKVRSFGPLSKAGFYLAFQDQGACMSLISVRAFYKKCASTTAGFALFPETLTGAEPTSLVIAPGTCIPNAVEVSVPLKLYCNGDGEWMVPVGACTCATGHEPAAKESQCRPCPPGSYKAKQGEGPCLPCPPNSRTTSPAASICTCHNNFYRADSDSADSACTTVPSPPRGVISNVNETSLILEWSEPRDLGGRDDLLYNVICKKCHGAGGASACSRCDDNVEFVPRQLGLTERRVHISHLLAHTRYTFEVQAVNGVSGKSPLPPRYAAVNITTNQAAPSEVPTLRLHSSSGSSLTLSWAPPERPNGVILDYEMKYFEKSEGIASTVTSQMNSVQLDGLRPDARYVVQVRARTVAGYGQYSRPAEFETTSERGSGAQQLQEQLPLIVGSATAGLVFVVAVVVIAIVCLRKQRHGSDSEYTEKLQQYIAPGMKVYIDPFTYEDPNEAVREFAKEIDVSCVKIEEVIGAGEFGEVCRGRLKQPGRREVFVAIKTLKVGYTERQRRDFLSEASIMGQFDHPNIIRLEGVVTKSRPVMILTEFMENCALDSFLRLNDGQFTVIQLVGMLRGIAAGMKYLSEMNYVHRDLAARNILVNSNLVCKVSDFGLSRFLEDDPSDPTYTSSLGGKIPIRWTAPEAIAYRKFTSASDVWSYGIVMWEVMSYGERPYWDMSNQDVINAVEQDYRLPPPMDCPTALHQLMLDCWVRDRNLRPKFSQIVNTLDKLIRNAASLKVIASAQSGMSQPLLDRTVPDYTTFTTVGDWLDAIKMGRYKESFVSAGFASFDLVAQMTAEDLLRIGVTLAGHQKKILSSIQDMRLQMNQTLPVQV
Description: as §1

[16] = biological target: Serine/threonine-protein kinase pim-1 (Homo sapiens, UniProt P11309); test: Kinase Assay
Description: as §1

[17] = biological target: Serine/threonine-protein kinase pim-3 (Homo sapiens, UniProt Q86V86); test: Kinase Assay
Description: as §1

Casein kinase II subunit alpha, sequence (P68400 whole entry): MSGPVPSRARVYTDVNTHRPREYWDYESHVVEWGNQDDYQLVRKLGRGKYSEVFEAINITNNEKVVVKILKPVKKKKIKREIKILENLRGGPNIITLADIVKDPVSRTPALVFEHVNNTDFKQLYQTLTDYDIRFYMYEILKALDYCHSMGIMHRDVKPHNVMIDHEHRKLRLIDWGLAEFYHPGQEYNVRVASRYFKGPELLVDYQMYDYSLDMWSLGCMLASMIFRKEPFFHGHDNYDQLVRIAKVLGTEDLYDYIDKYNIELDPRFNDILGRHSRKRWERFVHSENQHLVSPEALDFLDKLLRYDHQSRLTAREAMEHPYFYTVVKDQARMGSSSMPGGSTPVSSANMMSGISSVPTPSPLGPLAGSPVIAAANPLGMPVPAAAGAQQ
MAP kinase-activated protein kinase 3, sequence (Q16644 whole entry): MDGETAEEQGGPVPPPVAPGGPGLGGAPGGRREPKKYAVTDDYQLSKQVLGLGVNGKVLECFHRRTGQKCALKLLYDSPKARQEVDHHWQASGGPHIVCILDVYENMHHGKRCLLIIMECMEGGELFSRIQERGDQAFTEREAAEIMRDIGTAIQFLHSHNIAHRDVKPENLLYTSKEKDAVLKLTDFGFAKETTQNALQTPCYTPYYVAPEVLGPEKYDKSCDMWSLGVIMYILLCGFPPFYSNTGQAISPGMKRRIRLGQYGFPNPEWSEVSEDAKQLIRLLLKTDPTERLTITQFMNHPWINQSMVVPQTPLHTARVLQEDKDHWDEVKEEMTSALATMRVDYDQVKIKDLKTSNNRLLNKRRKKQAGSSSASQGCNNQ

CC1CN(c2nc3ccccn3c(=O)c2N)CC(C)O1 (stereo unspecified) [Kinase inhibitor, A1]
IC50 [1]: 18 µM | IC50 [2]: 21 µM | IC50 [3]: 97 µM | IC50 [4]: 196 µM | IC50 (SRSF protein kinase 1): 114 µM

Nc1cnc2c(-c3c(F)cccc3F)cccn2c1=O [Kinase inhibitor, A2]
IC50 (Aurora kinase A): 188 µM | IC50 [1]: 131 µM | IC50 [5]: 26 µM | IC50 [6]: 25 µM | IC50 [7]: 252 µM | IC50 [8]: 47 µM | IC50 [9]: 24 µM | IC50 [10]: 4 µM

Nc1nc2cnc(-c3ccccc3)cn2n1 [Kinase inhibitor, B1]
IC50 [8]: 25 µM | IC50 [9]: 11 µM | IC50 [3]: 20 µM | IC50 [11]: 17 µM | IC50 [12]: 21 µM | IC50 [13]: 39 µM | IC50 [10]: 6 µM

COc1ccc(-c2cc3c(=O)[nH]cnc3s2)cc1OC [Kinase inhibitor, C2]
IC50 [14]: 25 µM | IC50 [15]: 110 µM

CC(C)(C)Nc1c(C2CC2)[nH]c2ncnn12 [Kinase inhibitor, D1]
IC50 (Ephrin type-B receptor 3): 158 µM | IC50 [7]: 469 µM

O=c1cc(-c2ccccc2F)nc2[nH]ccn12 [Kinase inhibitor, F3]
IC50 [16]: 22 µM | IC50 [17]: 14 µM

Reference: BindingDB's records for doi:10.1021/cb300729y (University of Dundee, 2013)
